Here are results for 14 compounds from PMC11123921, “Synthesis and Evaluation of 5-(Heteroarylmethylene)hydantoins as Glycogen Synthase Kinase-3β Inhibitors” (Pharmaceuticals, 2024).

Where a name gives a salt, the structure may show the parent alone. Some results are limits rather than exact numbers.

One may read the IC50 as the concentration that inhibits the measured activity by half. A high value points to a need for much substance. By melting point is commonly meant the temperature of the solid-liquid transition.

Data set [1] has as its target T1, Staphylococcus aureus pyruvate carboxylase (SaPC) (Staphylococcus aureus, UniProt A0A0H3JRU9).
T1 sequence (A0A0H3JRU9 1-1150): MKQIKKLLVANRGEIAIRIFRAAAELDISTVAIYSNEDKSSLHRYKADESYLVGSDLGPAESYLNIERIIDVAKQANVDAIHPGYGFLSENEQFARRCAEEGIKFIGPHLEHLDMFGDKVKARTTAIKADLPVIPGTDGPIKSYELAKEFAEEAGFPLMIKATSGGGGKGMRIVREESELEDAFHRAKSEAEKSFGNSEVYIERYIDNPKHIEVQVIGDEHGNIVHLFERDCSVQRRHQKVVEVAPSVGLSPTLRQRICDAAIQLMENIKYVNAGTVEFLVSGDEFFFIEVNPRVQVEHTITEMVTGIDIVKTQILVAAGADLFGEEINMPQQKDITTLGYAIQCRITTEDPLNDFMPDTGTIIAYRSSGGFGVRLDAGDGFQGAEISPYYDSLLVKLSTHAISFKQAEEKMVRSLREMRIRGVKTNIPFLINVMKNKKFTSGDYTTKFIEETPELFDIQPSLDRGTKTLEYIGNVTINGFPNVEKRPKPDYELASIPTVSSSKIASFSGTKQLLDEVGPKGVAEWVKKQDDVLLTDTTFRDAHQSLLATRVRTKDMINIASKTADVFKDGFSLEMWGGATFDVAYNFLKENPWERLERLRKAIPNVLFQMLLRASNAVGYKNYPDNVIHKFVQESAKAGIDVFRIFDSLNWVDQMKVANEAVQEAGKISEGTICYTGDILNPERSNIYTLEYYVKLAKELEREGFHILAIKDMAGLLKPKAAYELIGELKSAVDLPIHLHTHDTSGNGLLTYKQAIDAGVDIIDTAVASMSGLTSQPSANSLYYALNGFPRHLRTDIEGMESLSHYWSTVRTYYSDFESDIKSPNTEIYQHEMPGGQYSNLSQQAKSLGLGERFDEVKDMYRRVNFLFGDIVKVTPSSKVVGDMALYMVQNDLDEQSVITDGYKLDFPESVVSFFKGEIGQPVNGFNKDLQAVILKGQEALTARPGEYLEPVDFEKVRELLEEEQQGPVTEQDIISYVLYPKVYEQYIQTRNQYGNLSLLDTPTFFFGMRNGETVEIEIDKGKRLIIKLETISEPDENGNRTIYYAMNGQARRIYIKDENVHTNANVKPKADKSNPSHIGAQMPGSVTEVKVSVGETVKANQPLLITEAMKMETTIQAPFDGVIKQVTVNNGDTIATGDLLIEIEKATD
Put plainly: biochemical. To be noted: isolated SaPC.

Another data set has as its target GSK-3β (Homo sapiens, UniProt P49841). The data set is described as follows: GSK-3β kinase HotSpot assay (Reaction Biology). To be noted: 10 μM ATP; for activity at 25 µM: 25 μM compound, duplicate, average, remaining kinase activity vs vehicle; for IC50: 10-point, triplicate, average ± SD. Format: biochemical.
The target in data set [2] is human carbonic anhydrase II (hCAII) (Homo sapiens, UniProt P00918). The data set is described as follows: Human carbonic anhydrase II p-nitrophenyl acetate assay. The conditions noted are these: 200 μM compound. The data set is classed as biochemical. As to the method: (§1) 5-(Heteroarylmethylene)hydantoins were evaluated as inhibitors for MMP-12 at fixed concentrations of 200 and 25 μM (Table 1). At 200 μM of 20–24, the activity of MMP-12 was ≤50% the activity of positive control; for compounds 21, 24, and 25 at 25 μM, the activity of MMP12 was 69–74% while the activity for the others was >80%. […] A select subset of the 5-(heteroarylmethylene)hydantoins were evaluated as inhibitors of human carbonic anhydrase II (hCAII) at 200 μM (Table 1). […] Finally, this same subset of 5-(heteroarylmethylene)hydantoins were evaluated as inhibitors of isolated S. aureus pyruvate carboxylase (SaPC) in a fixed-time assay (Table 1). No inhibitory activity was observed up to 1000 μM.
Assays for human carbonic anhydrase II activity were performed in a 96-well plate format for a total reaction volume of 100 μL, in an assay modified from Day and Cohen. All assay reagents and solutions were prepared separately and maintained at 22 °C until warmed to 30 °C. All substrates, effectors, and enzyme were freshly dissolved and diluted in assay buffer containing 50 mM Tris (pH 8.0). The final concentration of the human carbonic anhydrase II enzyme was 200 nM. Where noted, acetazolamide was included at a final concentration of 10 μM. The substrate, p-nitrophenyl acetate, was added at a final concentration of 504 μM. For all experiments, 20 μL of enzyme stock solution was added to each well in a 96-well, flat-bottom, polystyrene microplate (Santa Cruz Biotechnology, Dallas, TX, USA), followed by the addition of 10 μL of the effectors (assay buffer for the uninhibited reaction, acetazolamide for the inhibition). The 96-well plate was then incubated in a plate reader at 30 °C for 10 min; concurrently, the substrate solution was also warmed to 30 °C for 10 min. The enzymatic reaction was initiated by adding 70 μL of the substrate solution (p-nitrophenyl acetate). The absorbance values were then measured at 405 nm every 30 s over a period of 20 min for a total of 40 measurements.

Data set [3] deals with human matrix metalloproteinase-12 (Homo sapiens, UniProt P39900). Put plainly: Matrix metalloproteinase-12 fluorogenic substrate assay. To be noted: for activity at 25 µM: 25 μM compound, read-out: MMP-12 % Activity @ 25 μM; for activity at 200 µM: 200 μM compound, read-out: MMP-12 % Activity @ 200 μM. The data set is classed as biochemical. The procedure:
as §1
Assays for human matrix metalloproteinase-12 activity were performed in a 96-well plate format for a total reaction volume of 100 μL, in an assay modified from Day and Cohen. All assay reagents were prepared and maintained at 22 °C until warmed to 37 °C. The omniMMP fluorogenic substrate and MMP-12 enzyme were prepared in assay buffer (50 mM HEPES, 10 mM CaCl2, 0.05% Brij-35, pH of 7.52), and small molecule effectors were prepared as a solution in 50% DMSO, 50% assay buffer. The final concentration of enzyme in the 100 μL enzymatic reaction was 0.0083 U/μL. A known inhibitor, N-[(4’-bromo [1,1’-biphenyl]-4-yl)sulfonyl]-L-valine (PD166793), was included where noted at a final concentration of 100 μM. OmniMMP fluorogenic substrate was added to the 100 μL enzymatic reaction at a final concentration of 4 μM. For all experiments, 30 μL of enzyme stock solution was added to each well in a 96-well, flat-bottom, black polystyrene microplate (SantaCruz Biotechnology, Dallas, TX, USA), followed by the addition of 10 μL of the effectors (50% assay buffer, 50% DMSO for the uninhibited reaction, PD166793 for the inhibition). The 96-well plate was then incubated in a plate reader at 37 °C for 30 min; concurrently, the substrate solution was also warmed to 37 °C for 30 min. The enzymatic reaction was initiated by adding 60 μL of the omniMMP fluorogenic substrate solution. The change in fluorescence was then monitored for 30 min with excitation and emission wavelengths at 320 and 400 nm, respectively, every 46 s for a total of 40 measurements.

Sequence of human matrix metalloproteinase-12 (P39900 106-470): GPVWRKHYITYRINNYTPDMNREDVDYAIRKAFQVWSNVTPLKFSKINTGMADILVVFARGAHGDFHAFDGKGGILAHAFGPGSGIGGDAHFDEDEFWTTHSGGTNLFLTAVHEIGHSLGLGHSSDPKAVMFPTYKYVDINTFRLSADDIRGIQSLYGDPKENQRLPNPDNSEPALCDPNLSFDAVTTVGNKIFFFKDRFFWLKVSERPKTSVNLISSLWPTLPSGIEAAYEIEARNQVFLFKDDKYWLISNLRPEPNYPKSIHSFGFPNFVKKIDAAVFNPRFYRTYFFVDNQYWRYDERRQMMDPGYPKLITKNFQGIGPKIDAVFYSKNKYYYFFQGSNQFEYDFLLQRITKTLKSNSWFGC
Sequence of GSK-3β (P49841 whole entry): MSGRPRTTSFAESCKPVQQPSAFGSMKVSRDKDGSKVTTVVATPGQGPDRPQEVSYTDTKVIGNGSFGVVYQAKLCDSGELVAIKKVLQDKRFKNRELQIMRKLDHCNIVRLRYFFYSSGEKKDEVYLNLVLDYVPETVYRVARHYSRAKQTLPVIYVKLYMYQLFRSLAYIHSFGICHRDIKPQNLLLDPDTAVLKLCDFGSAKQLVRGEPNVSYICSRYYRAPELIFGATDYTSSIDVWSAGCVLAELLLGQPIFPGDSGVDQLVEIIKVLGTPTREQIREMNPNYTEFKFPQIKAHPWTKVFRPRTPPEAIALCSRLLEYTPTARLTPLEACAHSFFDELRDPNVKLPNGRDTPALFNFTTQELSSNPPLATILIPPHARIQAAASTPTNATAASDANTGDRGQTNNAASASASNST

The compound `COc1cccc(/C=C2\NC(=O)NC2=O)n1` [Compound 15, (Z)-5-[(6′-Methoxy-2-pyridinyl)methylene]-2,4-imidazolidinedione] had a melting point of 249 to 251 °C. Moreover, the IC50 in data set [1] is more than 1000 µM. On GSK-3β, the activity at 25 µM is 17.3% and it took 4.06 ± 0.3 µM to reach half-maximal inhibition (IC50). The activity at 200 µM in data set [2] was determined as 82.1 ± 11%. In data set [3], the activity at 25 µM is 87.5% and the activity at 200 µM was 74%.
`O=C1NC(=O)/C(=C/c2ccccn2)N1` [Compound 17, (Z)-5-[(2′-Pyridinyl)methylene]-2,4-imidazolidinedione]: the melting point is 231 to 233 °C. The activity at 25 µM on GSK-3β came to 55.4%.
`O=C1NC(=O)/C(=C/c2ccc3ccccc3n2)N1` [Compound 18, (Z)-5-[(2-Quinolinyl)methylene]-2,4-imidazolidinedione] came in with a melting point of more than 255 °C. The compound further had an IC50 in data set [1] of more than 1000 µM. Also, at GSK-3β, the activity at 25 µM was determined as 32.9%. Moreover, in data set [3], the activity at 25 µM turned out to be 94.1% and the activity at 200 µM came out at 57.6%.
Take `O=C1NC(=O)/C(=C/c2cccnc2)N1` [Compound 19, (Z)-5-[(3′-Pyridinyl)methylene]-2,4-imidazolidinedione]: the melting point was more than 255 °C. In data set [1], this compound registered a concentration for half-maximal inhibition (IC50) of more than 1000 µM. For the same compound, the activity at 25 µM on GSK-3β came out at 71.8%. The activity at 200 µM in data set [2] worked out at 88.9 ± 12.3%. For the same compound, in data set [3], the activity at 25 µM was 84.2% and the activity at 200 µM was found to be 50.6%.
Take `Cc1cccnc1/C=C1\NC(=O)NC1=O` [Compound 20, (Z)-5-[(3′-Methyl-2-pyridinyl)methylene]-2,4-imidazolidinedione]: the melting point is 245 to 248 °C. Also, the activity at 25 µM at GSK-3β came out at 31.6%. Further, in data set [3], the activity at 25 µM is 108% and the activity at 200 µM was 39.6%.
For the compound `Cc1ccnc(/C=C2\NC(=O)NC2=O)c1` [Compound 21, (Z)-5-[(4′-Methyl-2-pyridinyl)methylene]-2,4-imidazolidinedione-HCl], the 50% inhibitory concentration (IC50) in data set [1] is more than 1000 µM. In addition, the activity at 25 µM on GSK-3β came out at 42%; in data set [3] it was 71.6%. Moreover, the activity at 200 µM worked out at 94.8 ± 12.8% in data set [2] and 28.5% in data set [3].
`Cc1ccc(/C=C2\NC(=O)NC2=O)nc1` [Compound 22, (Z)-5-[(5′-Methyl-2-pyridinyl)methylene]-2,4-imidazolidinedione] registered a melting point of more than 250 °C. For the same compound, the half-maximal inhibitory concentration (IC50) in data set [1] is more than 1000 µM. Besides, the activity at 25 µM on GSK-3β was found to be 47%. Further, the activity at 200 µM in data set [2] stood at 87.4 ± 11.8%. Moreover, in data set [3], the activity at 25 µM amounted to 101% and the activity at 200 µM worked out at 40.7%.
As to `Cc1cccc(/C=C2\NC(=O)NC2=O)n1` [Compound 23, (Z)-5-[(6′-Methyl-2-pyridinyl)methylene]-2,4-imidazolidinedione-HCl], the IC50 in data set [1] was more than 1000 µM; against GSK-3β, 8.34 ± 0.27 µM. For the same compound, the figures for the activity at 25 µM (on GSK-3β; in data set [3]) were 28.4% and 86.4%, respectively. In addition, the activity at 200 µM worked out at 88.9 ± 12.3% in data set [2] and 46.5% in data set [3].
Compound `O=C1NC(=O)/C(=C/c2ncccc2Cl)N1` [Compound 24, (Z)-5-[(3′-Chloro-2-pyridinyl)methylene]-2,4-imidazolidinedione-HCl] yielded an IC50 in data set [1] of more than 1000 µM. For the same compound, the activity at 25 µM worked out at 44.6% on GSK-3β and 69.1% in data set [3]. In addition, the figures for the activity at 200 µM in data set [2] and in data set [3] were 91.8 ± 14.7% and 39.2%, respectively.
For `O=C1NC(=O)/C(=C/c2cc(Cl)ccn2)N1` [Compound 25, (Z)-5-[(4′-Chloro-2-pyridinyl)methylene]-2,4-imidazolidinedione-HCl], the half-maximal inhibitory concentration (IC50) was more than 1000 µM in data set [1] and 2.14 ± 0.18 µM against GSK-3β. Also, the activity at 25 µM on GSK-3β came to 15.4%; in data set [3], 73.9%. In addition, the figures for the activity at 200 µM in data set [2] and in data set [3] were 57 ± 16.4% and 50%, respectively.
`O=C1NC(=O)/C(=C/c2ccc(Br)cn2)N1` [Compound 26, (Z)-5-[(5′-Bromo-2-pyridinyl)methylene]-2,4-imidazolidinedione] displayed a melting point of more than 255 °C. Besides, the activity at 25 µM on GSK-3β was determined as 35.3%. For the same compound, in data set [3], the activity at 25 µM amounted to 98.6% and the activity at 200 µM came out at 72.9%.
Regarding `O=C1NC(=O)/C(=C/c2cccc(Br)n2)N1` [Compound 27, (Z)-5-[(6′-Bromo-2-pyridinyl)methylene]-2,4-imidazolidinedione], the melting point is more than 250 °C. In addition, in data set [1], the 50% inhibitory concentration (IC50) is more than 1000 µM. Further, on GSK-3β, the activity at 25 µM worked out at 17% and the midpoint of inhibition, the IC50, lay at 3.39 ± 0.16 µM. Moreover, in data set [2], the activity at 200 µM amounted to 86.7 ± 12.1%. In data set [3], the activity at 25 µM amounted to 85.8% and the activity at 200 µM amounted to 88.7%.
`O=C1NC(=O)/C(=C/c2ccc3ncccc3c2)N1` [Compound 28, (Z)-5-[(6′-Quinolinyl)methylene]-2,4-imidazolidinedione] displayed a melting point of more than 250 °C. In addition, on GSK-3β, the activity at 25 µM worked out at 22.5% and the IC50 is 7.82 ± 0.12 µM. Also, in data set [3], the activity at 25 µM worked out at 81.8% and the activity at 200 µM worked out at 61.6%.
In the case of `O=C1NC(=O)/C(=C/c2csc3ccccc23)N1` [Compound 29, (Z)-5-[(3-Benzo[b]thiophenyl)methylene]-2,4-imidazolidinedione], the melting point was more than 250 °C. In data set [1], the IC50 was more than 1000 µM. In addition, the activity at 25 µM at GSK-3β worked out at 27.9%. In data set [2], the activity at 200 µM stood at 63%. In addition, the “hCAII % Activity @ 200 μM” value in data set [2] (200 µM) is reported as 62.7 ± 9.8%. In addition, in data set [3], the activity at 25 µM came to 98.1% and the activity at 200 µM amounted to 88%.
